Here are results for 15 compounds from PubChem BioAssay (NCI).

Holding throughout (assay): DTP human tumour cell line panel, 48 h
Assay [1] has as its system OVCAR-3 ovarian.
In assay [2] the test system is ACHN renal.
The subject of assay [3] is MOLT-4 leukemia.
The test system of assay [4] is SF-268 CNS.
Assay [5] has as its system OVCAR-8 ovarian.
In assay [6] the test system is HS 578T breast.
Assay [7] has as its system 786-0 renal.
For assay [8], the system named is HOP-92 NSCLC.
Assay [9] has as its system SF-295 CNS.
For assay [10], the system named is HL-60(TB) leukemia.

Each structure is given as a SMILES string. Several values for one entry are separate records, joined by “and”; a condition that tells them apart may be missing. Identical values can stand only once.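 Test compounds were applied to cells in 96-well plates for 48 hours at 5 doses. Abbreviation: GI50, concentration required for 50% inhibition of growth. Definition used: TGI = concentration required for complete inhibition of growth.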 Bounds are passed on as bounds.

`CCCCCCCCCCCCC(NC(C)=O)(C(=O)OCC)C(=O)OCC`: the GI50 is 11.7 µM in assay [1]; 12.6 µM in assay [2]; 18.2 µM in assay [3]; 13.4 µM in assay [4]; 12.7 µM in assay [5]; 14 µM in [6]. The GI50 is 14.9 µM in [7], 12.2 µM in [8] and 11.2 µM in assay [9]. Further, the TGI in [1] came to 25.4 µM; in [2], 25.3 µM; in assay [3] it was 62.4 µM; in assay [4], 28.5 µM; in [5], 32.3 µM; in assay [6] it was 45.8 µM. In addition, the values for the TGI in [7], in assay [8] and in assay [9] were 29.3 µM, 25.4 µM and 26.9 µM, respectively.
For the compound `CC1=CC2=C(C#N)C(=O)OC2(C)C(c2ccccc2)C1` (configuration not stated), the concentration for total growth inhibition (TGI) in [1], in assay [2], in [3], in assay [4], in [5] and in assay [6] was more than 100 µM each time. Further, the concentration for total growth inhibition (TGI) in assay [7], in [8] and in [9] was more than 100 µM in each case.
As to `CCCCCCC(O)C(O)CCC(O)C1CCC(CCCCC(O)CC2=CC(C)OC2=O)O1` (configuration not stated), the GI50 in assay [1] is 13.7 µM; in [2] it was 12.4 µM; in assay [3], 13.4 µM; in assay [4] it was 20.3 µM; in [7] it was 21.9 µM; in assay [8], 18.5 µM. Moreover, in assay [9], the GI50 was 0.0305 µM. The TGI is 5.22 µM and 28.7 µM in assay [1]; 43.9 µM in assay [3]; 48.8 µM in [4]; 6.65 µM in [5]; 6.98 µM in assay [6]; 52.1 µM in assay [7]. The TGI in assay [8] worked out at 46.7 µM; in assay [9] it was 20.1 µM.
`COc1c(N2CCN(CN3C(=O)C(=O)c4ccccc43)C(C)C2)c(F)cc2c(=O)c(C(=O)O)cn(C3CC3)c12` (configuration not stated): the GI50 in assay [1] is 98.7 µM; in [2] it was more than 100 µM; in assay [10] it was more than 100 µM; in [3] it was 36.8 µM; in assay [4], 46 µM; in [5], more than 100 µM. In addition, the results for the GI50 in assay [6], in assay [7] and in [9] were 91.2 µM, more than 100 µM and more than 100 µM, respectively. Also, the TGI in assay [1], in assay [2], in assay [10], in assay [3], in assay [4] and in assay [5] was more than 100 µM in each case. Moreover, the concentration for total growth inhibition (TGI) in assay [6], in [7] and in [9] was more than 100 µM throughout.
With `Cc1ccc(-n2c3c(c4c(CN)c(O)ccc42)CCc2ccccc2C3=O)cc1`, the GI50 in assay [1] is 10.2 µM; in assay [2] it was 16.7 µM; in assay [3] it was 2.33 µM; in assay [4], 9.06 µM; in [5], 19.7 µM; in assay [6] it was 0.456 µM. The GI50 in assay [7] is 14.6 µM; in [8] it was 2.31 µM; in assay [9], 10.2 µM. The concentration for total growth inhibition (TGI) in [1] came out at 22.3 µM; in assay [2], 31.1 µM; in assay [3] it was 6.51 µM; in assay [4], 28.3 µM; in assay [5], 38 µM; in assay [6] it was 5.03 µM. Moreover, the TGI in assay [7] amounted to 28.8 µM; in assay [8], 8.11 µM; in assay [9] it was 22.5 µM.
In the case of `CCC(=O)Nc1ncnc2ncn(C(=O)CC)c12`, the concentration for total growth inhibition (TGI) in [1], in assay [2], in assay [3], in assay [4], in assay [5] and in [6] was more than 100 µM throughout. In addition, the TGI in [7], in assay [8] and in assay [9] was more than 100 µM each time.
Regarding `Cc1ccc2c(c1)-c1oc(=O)c(-c3cc4ccccc4oc3=O)cc1C(O)O2` (configuration not stated), the GI50 in assay [1] was 22.2 µM; in assay [2] it was 10.2 µM; in [3] it was 27.8 µM; in assay [4], 34.2 µM; in assay [5] it was 19.9 µM; in [6] it was 24 µM. Further, the GI50 is 20.9 µM in assay [7], 17.3 µM in assay [8] and 16.3 µM in [9]. Besides, the TGI was 42.1 µM in assay [1]; 24.4 µM in assay [2]; 74.4 µM in assay [3]; more than 100 µM in assay [4]; 62.5 µM in assay [5]; 47.7 µM in assay [6]. In addition, the TGI in assay [7] amounted to 39.7 µM; in assay [8], 40.5 µM; in assay [9], 38.2 µM.
With `C[C@@]1(O)CCC[C@H]1n1c(=O)c(C(F)F)cc2cnc(NC3CCN(S(C)(=O)=O)CC3)nc21`, the GI50 is 1.37 µM in [2]; 1.14 µM in [10]; 2.07 µM in assay [4]; 2.11 µM in assay [5]; 1.48 µM in [6]; 1.9 µM in [7]. In addition, the figures for the GI50 in assay [8] and in assay [9] were 2.04 µM and 1.83 µM, respectively. Further, the TGI in assay [2] is more than 100 µM; in assay [10], 5.38 µM; in assay [4], 7.34 µM; in assay [5] it was more than 100 µM; in assay [6], 7.28 µM; in assay [7] it was more than 100 µM. For the same compound, the figures for the TGI in assay [8] and in assay [9] were 6.8 µM and 16.2 µM, respectively.
On to `COc1cccc(NC(=O)c2ccc(NC3=C(Cl)C(=O)N(Cc4ccccc4)C3=O)cc2)c1`, for which the GI50 in assay [1] was 3.29 µM; in assay [2], 6.22 µM; in assay [10], 11.9 µM; in assay [3] it was 2.82 µM; in [4], 17.5 µM; in assay [5], 4.17 µM. For the same compound, the GI50 in assay [6] was 11.1 µM; in assay [7], 18.3 µM; in assay [9] it was 10.5 µM. The TGI in assay [1] amounted to 15.3 µM; in [2], 19 µM; in assay [10], 29 µM; in assay [3], 16.2 µM; in assay [4] it was 37.4 µM; in assay [5], 16.5 µM. Also, the figures for the TGI in assay [6], in assay [7] and in [9] were 30.9 µM, 33.9 µM and 28.8 µM, respectively.
Consider `COc1c(Cl)[c]([Hg][O]C(C)=O)c(NCC(C)=O)c(OC)[c]1[Hg][O]C(C)=O`, for which the GI50 in assay [1] was 10.2 µM; in assay [2], 17.8 µM; in [10], 19.9 µM; in assay [3] it was 17.1 µM; in [4], 11.4 µM; in assay [5], 13.6 µM. In addition, the GI50 in [7] was 3.44 µM; in [8], 2.28 µM; in assay [9] it was 20.2 µM. For the same compound, the TGI was 21.8 µM in [1]; 34.5 µM in [2]; 50.1 µM in assay [10]; 48.5 µM in assay [3]; 30.8 µM in assay [4]; 32.4 µM in [5]. The TGI in assay [7] amounted to 12.9 µM; in [8], 6.8 µM; in assay [9], 45.2 µM.
For `COc1cc2c(cc1OC)-c1ncc3cc(OC)c(OC)c(OC)c3c1C2`, the GI50 was 15.9 µM in assay [1]; 32 µM in assay [2]; 12 µM in [5]; 4.11 µM in assay [6]; 40 µM in [7]; 15.3 µM in assay [8]. The GI50 in [9] was 18.8 µM. The TGI in assay [1] was 43.9 µM; in assay [2], more than 100 µM; in assay [5] it was 43.1 µM; in [6], 27.2 µM; in [7] it was more than 100 µM; in assay [8] it was more than 100 µM. The compound further had a concentration for total growth inhibition (TGI) in [9] of 53.8 µM.
For the compound `COc1ccc(C[C@H]2NC[C@H](O)[C@H]2OC(C)=O)cc1`, the TGI in assay [1] came out at 0.335 µM; in [2], 0.122 µM; in assay [3], 0.0642 µM; in assay [4], 1.03 µM; in assay [5] it was 0.0897 µM; in assay [6] it was 0.0604 µM. Besides, the TGI in [7] amounted to 0.137 µM; in [8], 0.186 µM; in [9] it was 0.0641 µM.
Consider `OCCCCCNc1ccnc2cc(Cl)ccc12`, for which the TGI in [1], in assay [2], in [10], in assay [3], in [4] and in assay [5] was more than 100 µM throughout. The total growth inhibition concentration (TGI) in assay [7], in [8] and in assay [9] was more than 100 µM in each case.
Consider `Cc1nc(-n2nc(-c3ccccc3)cc2-c2ccccc2)sc1C(=O)/C=C/c1ccc(Cl)cc1`, for which the TGI in assay [1] was 35.6 µM; in assay [2], more than 100 µM; in assay [10] it was 33.1 µM; in [3], 41 µM; in assay [4], more than 100 µM; in assay [5], more than 100 µM. Besides, the values for the total growth inhibition concentration (TGI) in assay [7], in [8] and in assay [9] were 27.4 µM, 43 µM and 30.5 µM, respectively.
Consider `CC(C)C1NC(=O)[C@H](C)OC(=O)[C@@H](C(C)C)NC(=O)[C@@H](C)OC(=O)C(C(C)C)NC(=O)[C@H](C)OC1=O` (some centres not stated), for which the TGI in [1], in assay [2], in assay [10], in assay [3], in assay [4] and in assay [5] was more than 100 µM each time. Further, the values for the TGI in [7], in [8] and in assay [9] were 47.2 µM, more than 100 µM and more than 100 µM, respectively.

A word on the GI50: it is the concentration at which growth is held to half of that of the control. In general, TGI refers to the concentration at which net growth stops. A higher TGI goes with lower sensitivity of the cells.
